This note sets out measurements from patent US20260098017A1, “NOVEL AROMATIC RING DERIVATIVE CONTAINING AMIDE SUBSTITUTION AND USE THEREOF” (TIANJIN PHARMACEUTICAL BIOTECHNOLOGY CO., LTD., priority 2022, published 2026).

This assay addresses Ba/F3 cell line expressing TYK2 (Homo sapiens, UniProt P29597, cells depend on it, form not given). In words: In vitro cellular inhibition assay (Ba/F3 cell proliferation, CellTiter-Glo). Format: cell-based. The note with it: read-out: IC50 (the source's name). The method, then:
The inhibitory effect of the compounds of formula (I) according to the present invention on the TYK2 signaling pathway in cells was assessed using the following method:
Instrumentation: SpectraMax Paradigm reader.
Method: in this experiment, a Ba/F3 cell line expressing TYK2 was employed to assess the effect of the compounds on cell proliferation inhibition by measuring their effects on cell activity in vitro.
Procedure: a CellTiter-Glo buffer was thawed and placed aside till room temperature. A CellTiter-Glo substrate was placed aside till room temperature and dissolved with the buffer to prepare a CellTiter-Glo working solution. To a 96-well flat bottom transparent drug plate, 98 μL of cell culture medium and 2 μL of gradient diluted compound solution were added. The drug plate was placed aside for 10 min, and then 50 μL of the CellTiter-Glo working solution was added. The drug plate was subsequently shaken on an orbital shaker for 2 min and placed aside at room temperature for an additional 10 min. Finally, the luminescence signal was measured on the SpectraMax Paradigm reader.
Data Analysis: the cell proliferation inhibition rate data were processed using the following formula:
Inhibition Rate (Inh %)=100−(RLUDrug−RLUMin)/(RLUMax−RLUMin)×100%.
The inhibition rates of compounds with different concentrations were calculated in EXCEL, and then GraphPad Prism software was employed to plot inhibition rate curve and calculate relevant parameters, including maximum and minimum cell inhibition rates, IC50 values.
(In general: ATP-based viability assays read luminescence as a measure of living cells.)
With `[2H]C([2H])([2H])NC(=O)c1nnc(NC(=O)C2CC2)cc1Nc1cccc(C(=O)Nc2ncc(C)cn2)c1OC` [Example 45], the GI50 lay within 5 to 10 nM.
Consider `[2H]C([2H])([2H])NC(=O)c1nnc(NC(=O)C2CC2)cc1Nc1cccc(C(=O)Nc2ccc(C3CC3)cc2)c1OC` [Example 19], for which the GI50 is 5 to 10 nM.
Consider `[2H]C([2H])([2H])NC(=O)c1nnc(NC(=O)C2CC2)cc1Nc1cccc(C(=O)Nc2ncn(C)n2)c1OC` [Example 36], for which the GI50 lay in the range of 5 to 10 nM.
Take `[2H]C([2H])([2H])NC(=O)c1cnc(NC(=O)C2CC2)cc1Nc1cccc(C(=O)Nc2cccnc2)c1OC` [Example 101]: the GI50 was in the range of 5 to 10 nM.
As for `[2H]C([2H])([2H])NC(=O)c1cnc(NC(=O)C2CC2)cc1Nc1cccc(C(=O)Nc2ccc(OC)c(C)c2)c1OC` [Example 83], the GI50 lay in the range of 5 to 10 nM.
For the compound `[2H]C([2H])([2H])NC(=O)c1cnc(NC(=O)C2CC2)cc1Nc1cccc(C(=O)Nc2cccc(C)c2C)c1OC` [Example 60], the GI50 lay in the range of 5 to 10 nM.
As for `[2H]C([2H])([2H])NC(=O)c1nnc(NC(=O)C2CC2)cc1Nc1cccc(C(=O)Nc2ccncc2)c1OC` [Example 50], the GI50 lay within 5 to 10 nM.
For `[2H]C([2H])([2H])NC(=O)c1cnc(NC(=O)C2CC2)cc1Nc1cccc(C(=O)Nc2ccccn2)c1OC` [Example 100] the value was 5 to 10 nM; for `[2H]C([2H])([2H])NC(=O)c1nnc(NC(=O)C2CC2)cc1Nc1cccc(C(=O)Nc2cccc(C3CC3)c2)c1OC` [Example 11], 5 to 10 nM; for `[2H]C([2H])([2H])NC(=O)c1cnc(NC(=O)C2CC2)cc1Nc1cccc(C(=O)Nc2ccc(C#N)c(C)c2)c1OC` [Example 82], 5 to 10 nM.
In the case of `[2H]C([2H])([2H])NC(=O)c1cnc(NC(=O)C2CC2)cc1Nc1cccc(C(=O)Nc2ccccc2F)c1OC` [Example 59], the GI50 fell in the range of 5 to 10 nM.
For the compound `[2H]C([2H])([2H])NC(=O)c1nnc(NC(=O)C2CC2)cc1Nc1cccc(C(=O)Nc2ccnc(C)c2)c1OC` [Example 39], the GI50 fell in the range of 5 to 10 nM.
Regarding `[2H]C([2H])([2H])NC(=O)c1cnc(NC(=O)C2CC2)cc1Nc1cccc(C(=O)Nc2cncnc2)c1OC` [Example 104], the GI50 fell in the range of 5 to 10 nM.
In the case of `[2H]C([2H])([2H])NC(=O)c1nnc(NC(=O)C2CC2)cc1Nc1cccc(C(=O)Nc2ccc(F)nc2)c1OC` [Example 46], the GI50 is 5 to 10 nM.
Take `[2H]C([2H])([2H])NC(=O)c1nnc(NC(=O)C2CC2)cc1Nc1cccc(C(=O)Nc2ccc(CC)cc2)c1OC` [Example 18]: the GI50 is 5 to 10 nM.
For the compound `[2H]C([2H])([2H])NC(=O)c1cnc(NC(=O)C2CC2)cc1Nc1cccc(C(=O)Nc2cccc(C3CC3)c2)c1OC` [Example 63], the GI50 lay within 5 to 10 nM.
In the case of `[2H]C([2H])([2H])NC(=O)c1nnc(NC(=O)C2CC2)cc1Nc1cccc(C(=O)Nc2ccc(C(F)(F)F)c(C)c2)c1OC` [Example 29], the GI50 is 5 to 10 nM.
Take `[2H]C([2H])([2H])NC(=O)c1nnc(NC(=O)C2CC2)cc1Nc1cccc(C(=O)Nc2ccc(OC)c(C)c2)c1OC` [Example 31]: the GI50 lay in the range of 5 to 10 nM.
As for `[2H]C([2H])([2H])NC(=O)c1cnc(NC(=O)C2CC2)cc1Nc1cccc(C(=O)Nc2ncc(C)cn2)c1OC` [Example 97], the GI50 lay within 5 to 10 nM.
On to `[2H]C([2H])([2H])NC(=O)c1cnc(NC(=O)C2CC2)cc1Nc1cccc(C(=O)Nc2cc(C)ccn2)c1OC` [Example 92], for which the GI50 fell in the range of 5 to 10 nM.
Turning to `[2H]C([2H])([2H])NC(=O)c1nnc(NC(=O)C2CC2)cc1Nc1cccc(C(=O)Nc2ccc(C#N)c(C)c2)c1OC` [Example 30], the GI50 is 5 to 10 nM.
Consider `[2H]C([2H])([2H])NC(=O)c1cnc(NC(=O)C2CC2)cc1Nc1cccc(C(=O)Nc2cccc(CC)c2)c1OC` [Example 65], for which the GI50 lay in the range of 5 to 10 nM.
Consider `[2H]C([2H])([2H])NC(=O)c1nnc(NC(=O)C2CC2)cc1Nc1cccc(C(=O)Nc2ccc(CC)c(C)c2)c1OC` [Example 25], for which the GI50 was 5 to 10 nM.
As for `[2H]C([2H])([2H])NC(=O)c1nnc(NC(=O)C2CC2)cc1Nc1cccc(C(=O)Nc2cccc(C(F)(F)F)c2)c1OC` [Example 12], the GI50 lay in the range of 5 to 10 nM.
As for `[2H]C([2H])([2H])NC(=O)c1nnc(NC(=O)C2CC2)cc1Nc1cccc(C(=O)Nc2cc(C)cc(C)c2)c1OC` [Example 9], the GI50 was 5 to 10 nM.
As for `[2H]C([2H])([2H])NC(=O)c1cnc(NC(=O)C2CC2)cc1Nc1cccc(C(=O)Nc2cccc(C(C)(C)C)c2)c1OC` [Example 69], the GI50 fell in the range of 5 to 10 nM.
In the case of `[2H]C([2H])([2H])NC(=O)c1nnc(NC(=O)C2CC2)cc1Nc1cccc(C(=O)Nc2cccc(CC)c2)c1OC` [Example 13], the GI50 was 5 to 10 nM.
With `[2H]C([2H])([2H])NC(=O)c1cnc(NC(=O)C2CC2)cc1Nc1cccc(C(=O)Nc2cc(C)cc(C)c2)c1OC` [Example 61], the GI50 lay in the range of 5 to 10 nM.
Regarding `[2H]C([2H])([2H])NC(=O)c1cnc(NC(=O)C2CC2)cc1Nc1cccc(C(=O)Nc2ccc(C(F)(F)F)cc2)c1OC` [Example 74], the GI50 was in the range of 5 to 10 nM.
`[2H]C([2H])([2H])NC(=O)c1nnc(NC(=O)C2CC2)cc1Nc1cccc(C(=O)Nc2ccccc2C)c1OC` [Example 10]: the GI50 was in the range of 5 to 10 nM.
Then `[2H]C([2H])([2H])NC(=O)c1cnc(NC(=O)C2CC2)cc1Nc1cccc(C(=O)Nc2ccccc2)c1OC` [Example 53], with 5 to 10 nM.
Consider `[2H]C([2H])([2H])NC(=O)c1nnc(NC(=O)C2CC2)cc1Nc1cccc(C(=O)Nc2ccc(OC)cc2)c1OC` [Example 24], for which the GI50 fell in the range of 5 to 10 nM.
For `[2H]C([2H])([2H])NC(=O)c1cnc(NC(=O)C2CC2)cc1Nc1cccc(C(=O)Nc2ccnc(C)c2)c1OC` [Example 90] the value was 5 to 10 nM; for `[2H]C([2H])([2H])NC(=O)c1cnc(NC(=O)C2CC2)cc1Nc1cccc(C(=O)Nc2ccc(CC)c(C)c2)c1OC` [Example 77], 5 to 10 nM.
Regarding `[2H]C([2H])([2H])NC(=O)c1nnc(NC(=O)C2CC2)cc1Nc1cccc(C(=O)Nc2ccccc2)c1OC` [Example 1], the GI50 was 5 to 10 nM.
In the case of `[2H]C([2H])([2H])NC(=O)c1cnc(NC(=O)C2CC2)cc1Nc1cccc(C(=O)Nc2cccc(C)n2)c1OC` [Example 89], the GI50 lay within 5 to 10 nM.
`[2H]C([2H])([2H])NC(=O)c1cnc(NC(=O)C2CC2)cc1Nc1cccc(C(=O)Nc2cccc(C#N)c2)c1OC` [Example 67]: the GI50 was 5 to 10 nM.
On to `[2H]C([2H])([2H])NC(=O)c1cnc(NC(=O)C2CC2)cc1Nc1cccc(C(=O)Nc2ccc(C(C)(C)C)cc2)c1OC` [Example 73], for which the GI50 fell in the range of 5 to 10 nM.
Turning to `[2H]C([2H])([2H])NC(=O)c1cnc(NC(=O)C2CC2)cc1Nc1cccc(C(=O)Nc2ccccc2C)c1OC` [Example 56], the GI50 was in the range of 5 to 10 nM.
As for `[2H]C([2H])([2H])NC(=O)c1nnc(NC(=O)C2CC2)cc1Nc1cccc(C(=O)Nc2cc(C)ccn2)c1OC` [Example 37], the GI50 is 5 to 10 nM.
Then `[2H]C([2H])([2H])NC(=O)c1nnc(NC(=O)C2CC2)cc1Nc1cccc(C(=O)Nc2ncc(F)cn2)c1OC` [Example 41], with 5 to 10 nM; and `[2H]C([2H])([2H])NC(=O)c1nnc(NC(=O)C2CC2)cc1Nc1cccc(C(=O)Nc2ccc(C(C)(C)C)c(C)c2)c1OC` [Example 28], with 5 to 10 nM; and `[2H]C([2H])([2H])NC(=O)c1nnc(NC(=O)C2CC2)cc1Nc1cccc(C(=O)Nc2cn(C)cn2)c1OC` [Example 35], with 5 to 10 nM.
